In article PMC5218480 (PLoS ONE, 2017):

System: MV-4-11 cells
Assay: Gene expression microarray analysis (Affymetrix PrimeView) and GSEA
Type: cell-based, human
Set-up: RFU PODN (11730768_x_at) / Fold change /veh PODN (11730768_x_at) / RFU LINC00158 (11744669_a_at) / Fold change /veh LINC00158 (11744669_a_at) / RFU DUSP10 (11751237_a_at) / Fold change /veh DUSP10 (11751237_a_at) / RFU ID3 (11757404_x_at) / Fold change /veh ID3 (11757404_x_at) / RFU PLEKHG5 (11737974_s_at) / Fold change /veh PLEKHG5 (11737974_s_at) / RFU LRRC4B (11730491_at) / Fold change /veh LRRC4B (11730491_at) / RFU GIMAP4 (11747438_a_at) / Fold change /veh GIMAP4 (11747438_a_at) / RFU KRT8 (11758183_x_at) / Fold change /veh KRT8 (11758183_x_at) / RFU CNN1 (11734310_a_at) / Fold change /veh CNN1 (11734310_a_at) / RFU VPS37D (11726825_at) / Fold change /veh VPS37D (11726825_at) / RFU C10orf10 (11716522_x_at) / Fold change /veh C10orf10 (11716522_x_at) / RFU KIR2DL2 /// KIR2DL4 /// KIR2DL5A /// KIR2DL5B /// KIR2DS1 /// KIR2DS2 /// KIR2DS3 /// KIR2DS4 /// KIR3DL3 /// KIR3DL3 /// KIR3DS1 (11738374_at) / Fold change /veh KIR2DL2 /// KIR2DL4 /// KIR2DL5A /// KIR2DL5B /// KIR2DS1 /// KIR2DS2 /// KIR2DS3 /// KIR2DS4 /// KIR3DL3 /// KIR3DL3 /// KIR3DS1 (11738374_at) / RFU C1QL1 (11718748_at) / Fold change /veh C1QL1 (11718748_at) / RFU TMPRSS4 (11747572_a_at) / Fold change /veh TMPRSS4 (11747572_a_at) / RFU HAMP (11756126_x_at) / Fold change /veh HAMP (11756126_x_at) / RFU RNFT2 (11725882_a_at) / Fold change /veh RNFT2 (11725882_a_at) / RFU NR4A2 (11747474_a_at) / Fold change /veh NR4A2 (11747474_a_at) / RFU ABCC12 (11746883_a_at) / Fold change /veh ABCC12 (11746883_a_at) / RFU TMEM136 (11760407_x_at) / Fold change /veh TMEM136 (11760407_x_at) / RFU CLDN22 /// WWC2 (11732394_at) / Fold change /veh CLDN22 /// WWC2 (11732394_at) / RFU HLA-DPB1 (11760878_x_at) / Fold change /veh HLA-DPB1 (11760878_x_at) / RFU SPINT1 (11716480_a_at) / Fold change /veh SPINT1 (11716480_a_at) / RFU GAP43 (11754022_s_at) / Fold change /veh GAP43 (11754022_s_at) / RFU A4GNT (11735810_at) / Fold change /veh A4GNT (11735810_at) / RFU PRB3 (11715151_x_at) / Fold change /veh PRB3 (11715151_x_at) / RFU TUBB4B (11761932_at) / Fold change /veh TUBB4B (11761932_at) / RFU CAPN14 (11732068_a_at) / Fold change /veh CAPN14 (11732068_a_at) / RFU TMCC2 (11721928_a_at) / Fold change /veh TMCC2 (11721928_a_at) / RFU IRGQ (11745062_a_at) / Fold change /veh IRGQ (11745062_a_at) / RFU FAM174B (11720279_a_at) / Fold change /veh FAM174B (11720279_a_at) / RFU TMPRSS4 (11748680_a_at) / Fold change /veh TMPRSS4 (11748680_a_at) / RFU FAM212B (11763350_a_at) / Fold change /veh FAM212B (11763350_a_at) / RFU PLEKHG5 (11743358_a_at) / Fold change /veh PLEKHG5 (11743358_a_at) / RFU ZSCAN30 (11745921_a_at) / Fold change /veh ZSCAN30 (11745921_a_at) / RFU CMKLR1 (11741424_a_at) / Fold change /veh CMKLR1 (11741424_a_at) / RFU LOC101060620 /// MAPK8IP1 (11723275_at) / Fold change /veh LOC101060620 /// MAPK8IP1 (11723275_at) / RFU SPTSSB (11747773_x_at) / Fold change /veh SPTSSB (11747773_x_at) / RFU PRSS12 (11739890_at) / Fold change /veh PRSS12 (11739890_at) / RFU BIN1 (11741810_x_at) / Fold change /veh BIN1 (11741810_x_at) / RFU WNT11 (11732464_a_at) / Fold change /veh WNT11 (11732464_a_at) / RFU C10orf10 (11716521_a_at) / Fold change /veh C10orf10 (11716521_a_at) / RFU C5orf56 (11738089_at) / Fold change /veh C5orf56 (11738089_at) / RFU CYB561 (11721691_x_at) / Fold change /veh CYB561 (11721691_x_at) / RFU ANKRD19P (11752326_a_at) / Fold change /veh ANKRD19P (11752326_a_at) / RFU OR2T12 /// OR2T33 /// OR2T8 (11738714_s_at) / Fold change /veh OR2T12 /// OR2T33 /// OR2T8 (11738714_s_at) / RFU VCAN (11748164_a_at) / Fold change /veh VCAN (11748164_a_at) / RFU JSRP1 (11732532_at) / Fold change /veh JSRP1 (11732532_at) / RFU KRTAP10-11 (11738290_x_at) / Fold change /veh KRTAP10-11 (11738290_x_at) / RFU MYO3A (11730013_a_at) / Fold change /veh MYO3A (11730013_a_at) / RFU EBF3 (11725865_a_at) / Fold change /veh EBF3 (11725865_a_at) / RFU CAMK2N1 (11719241_x_at) / Fold change /veh CAMK2N1 (11719241_x_at) / RFU C5orf56 (11738088_a_at) / Fold change /veh C5orf56 (11738088_a_at) / RFU OLFML3 (11715873_a_at) / Fold change /veh OLFML3 (11715873_a_at) / RFU LOC100653217 /// NTM (11731650_a_at) / Fold change /veh LOC100653217 /// NTM (11731650_a_at) / RFU MAPK11 (11762145_a_at) / Fold change /veh MAPK11 (11762145_a_at) / RFU FIZ1 (11724087_x_at) / Fold change /veh FIZ1 (11724087_x_at) / RFU OASL (11726364_x_at) / Fold change /veh OASL (11726364_x_at) / RFU SOX15 (11748057_x_at) / Fold change /veh SOX15 (11748057_x_at) / RFU CD79A (11719716_a_at) / Fold change /veh CD79A (11719716_a_at) / RFU HIST1H1D (11736915_at) / Fold change /veh HIST1H1D (11736915_at) / RFU CASKIN2 (11723855_a_at) / Fold change /veh CASKIN2 (11723855_a_at) / RFU LOC730098 (11760151_x_at) / Fold change /veh LOC730098 (11760151_x_at) / RFU OR4N2 (11742367_at) / Fold change /veh OR4N2 (11742367_at) / RFU PRRT2 (11749266_a_at) / Fold change /veh PRRT2 (11749266_a_at) / RFU SNX32 (11753110_a_at) / Fold change /veh SNX32 (11753110_a_at) / RFU CDHR5 (11726645_a_at) / Fold change /veh CDHR5 (11726645_a_at) / RFU RCAN1 (11760418_a_at) / Fold change /veh RCAN1 (11760418_a_at) / RFU FAM167A (11723789_a_at) / Fold change /veh FAM167A (11723789_a_at) / RFU FAM26E (11764081_at) / Fold change /veh FAM26E (11764081_at) / RFU ISYNA1 (11749810_s_at) / Fold change /veh ISYNA1 (11749810_s_at) / RFU ACY1 (11761880_at) / Fold change /veh ACY1 (11761880_at) / RFU 11764098_at / Fold change /veh 11764098_at / RFU SAMD14 (11745864_x_at) / Fold change /veh SAMD14 (11745864_x_at) / RFU NPB (11741838_a_at) / Fold change /veh NPB (11741838_a_at) / RFU TMPRSS6 (11731388_a_at) / Fold change /veh TMPRSS6 (11731388_a_at) / RFU KRTAP10-2 (11738614_at) / Fold change /veh KRTAP10-2 (11738614_at) / RFU ARHGAP8 /// PRR5-ARHGAP8 (11727945_x_at) / Fold change /veh ARHGAP8 /// PRR5-ARHGAP8 (11727945_x_at) / RFU KRTAP5-7 /// NADSYN1 (11734609_at) / Fold change /veh KRTAP5-7 /// NADSYN1 (11734609_at) / RFU RASL12 (11751679_a_at) / Fold change /veh RASL12 (11751679_a_at) / RFU CDKN2B (11736163_a_at) / Fold change /veh CDKN2B (11736163_a_at) / RFU PRF1 (11729649_at) / Fold change /veh PRF1 (11729649_at) / RFU, ZNF638 /// ZNF638-IT1 / Fold change vs veh, ZNF638 /// ZNF638-IT1 / RFU, PANK3 / Fold change vs veh, PANK3 / RFU, SH3YL1 / Fold change vs veh, SH3YL1 / RFU, ZEB2 / Fold change vs veh, ZEB2 / RFU, NRIP1 / Fold change vs veh, NRIP1 / RFU, PTTG1IP / Fold change vs veh, PTTG1IP / RFU, CAPN2 / Fold change vs veh, CAPN2 / RFU, MED14 / Fold change vs veh, MED14 / RFU, SNORA58 / Fold change vs veh, SNORA58 / RFU, C1orf63 / Fold change vs veh, C1orf63 / RFU, LRRFIP1 / Fold change vs veh, LRRFIP1 / RFU, NDUFAF7 / Fold change vs veh, NDUFAF7 / RFU, SLC12A2 / Fold change vs veh, SLC12A2 / RFU, IBTK / Fold change vs veh, IBTK / RFU, ESF1 / Fold change vs veh, ESF1 / Fold change vs veh, TMEM50B / RFU, TAOK1 / Fold change vs veh, TAOK1 / RFU, ACBD3 / Fold change vs veh, ACBD3 / RFU, TMA16 / Fold change vs veh, TMA16 / RFU, RWDD3 / Fold change vs veh, RWDD3 / RFU, BCAT1 / Fold change vs veh, BCAT1 / RFU, EDEM3 / Fold change vs veh, EDEM3 / RFU, TMEM33 / Fold change vs veh, TMEM33 / RFU, WDR75 / Fold change vs veh, WDR75 / RFU, AHCTF1 / Fold change vs veh, AHCTF1 / RFU, TFRC / Fold change vs veh, TFRC / RFU, ZDHHC17 / Fold change vs veh, ZDHHC17 / RFU, NOM1 / Fold change vs veh, NOM1 / RFU, ARL8B / Fold change vs veh, ARL8B / RFU, ZBTB11 / Fold change vs veh, ZBTB11 / RFU, TAMM41 / Fold change vs veh, TAMM41 / RFU, KIAA1704 /// LOC100996395 / Fold change vs veh, KIAA1704 /// LOC100996395 / RFU, ING1 / Fold change vs veh, ING1 / RFU, TRMT61B / Fold change vs veh, TRMT61B / RFU, FUBP3 / Fold change vs veh, FUBP3 / RFU, TP53 / Fold change vs veh, TP53 / RFU, TNKS2 / Fold change vs veh, TNKS2 / RFU, ZFP14 / Fold change vs veh, ZFP14 / RFU, ACTR2 / Fold change vs veh, ACTR2 / RFU, PPP3R1 / Fold change vs veh, PPP3R1 / RFU, PIK3R1 / Fold change vs veh, PIK3R1 / RFU, HNRNPA1 / Fold change vs veh, HNRNPA1 / RFU, RNF170 / Fold change vs veh, RNF170 / RFU, ZNF28 / Fold change vs veh, ZNF28 / RFU, RNGTT / Fold change vs veh, RNGTT / RFU, OGT / Fold change vs veh, OGT / RFU, BRD1 / Fold change vs veh, BRD1 / RFU, MARS / Fold change vs veh, MARS / RFU, ZNF655 / Fold change vs veh, ZNF655 / RFU, FAHD1 / Fold change vs veh, FAHD1 / RFU, BDP1 / Fold change vs veh, BDP1 / RFU, LRRCC1 / Fold change vs veh, LRRCC1 / RFU, ARID1A / Fold change vs veh, ARID1A / RFU, ZNF146 / Fold change vs veh, ZNF146 / RFU, ZNF330 / Fold change vs veh, ZNF330 / RFU, GPN3 / Fold change vs veh, GPN3 / RFU, C9orf123 / Fold change vs veh, C9orf123 / RFU, N4BP2L2 / Fold change vs veh, N4BP2L2 / RFU, ARFIP1 / Fold change vs veh, ARFIP1 / RFU, FAM179B / Fold change vs veh, FAM179B / RFU, BCL10 / Fold change vs veh, BCL10 / RFU, UHRF1BP1L / Fold change vs veh, UHRF1BP1L / RFU, BET1 / Fold change vs veh, BET1 / RFU, CNOT2 / Fold change vs veh, CNOT2 / RFU, ZNF268 / Fold change vs veh, ZNF268 / Fold change vs veh, ZNF507 / RFU, DGCR2 / Fold change vs veh, DGCR2 / RFU, WDSUB1 / Fold change vs veh, WDSUB1 / Fold change vs veh, HSP90B1 /// MIR3652 / RFU, ADSS / Fold change vs veh, ADSS / RFU, GK / Fold change vs veh, GK / RFU, ZNF148 / Fold change vs veh, ZNF148 / RFU, TAF9 / Fold change vs veh, TAF9 / RFU, SLC1A5 / Fold change vs veh, SLC1A5 / RFU, SLMO2 / Fold change vs veh, SLMO2 / RFU, ABCC4 / Fold change vs veh, ABCC4 / RFU, LOC101060439 /// RAP1B / Fold change vs veh, LOC101060439 /// RAP1B / RFU, RFX7 / Fold change vs veh, RFX7 / RFU, GTPBP10 / Fold change vs veh, GTPBP10 / RFU, CNEP1R1 / Fold change vs veh, CNEP1R1 / RFU, BIVM-ERCC5 /// ERCC5 / Fold change vs veh, BIVM-ERCC5 /// ERCC5 / RFU, ILF3 / Fold change vs veh, ILF3 / RFU 11762660_at / Fold change /veh 11762660_at / RFU VCAN (11757783_s_at) / Fold change /veh VCAN (11757783_s_at) / RFU DDX43 (11728927_at) / Fold change /veh DDX43 (11728927_at) / RFU KRT8 (11758188_x_at) / Fold change /veh KRT8 (11758188_x_at) / RFU NKD1 (11759106_at) / Fold change /veh NKD1 (11759106_at) / RFU SRD5A1 (11742802_a_at) / Fold change /veh SRD5A1 (11742802_a_at) / RFU TPSAB1 /// TPSB2 (11721975_s_at) / Fold change /veh TPSAB1 /// TPSB2 (11721975_s_at) / RFU GSTM3 (11746129_a_at) / Fold change /veh GSTM3 (11746129_a_at) / RFU IL23R (11737362_x_at) / Fold change /veh IL23R (11737362_x_at) / RFU TMEM51 (11727254_a_at) / Fold change /veh TMEM51 (11727254_a_at) / RFU PIWIL2 (11732686_x_at) / Fold change /veh PIWIL2 (11732686_x_at) / RFU ORM1 (11744905_x_at) / Fold change /veh ORM1 (11744905_x_at) / RFU CCDC152 (11743942_at) / Fold change /veh CCDC152 (11743942_at) / RFU ECM1 (11717891_a_at) / Fold change /veh ECM1 (11717891_a_at) / RFU IL23R (11748794_a_at) / Fold change /veh IL23R (11748794_a_at) / RFU TNFAIP8L3 (11732012_x_at) / Fold change /veh TNFAIP8L3 (11732012_x_at) / RFU MBOAT4 (11741988_at) / Fold change /veh MBOAT4 (11741988_at) / RFU 11764193_at / Fold change /veh 11764193_at / RFU TMEM53 (11763286_at) / Fold change /veh TMEM53 (11763286_at) / RFU MAGEB2 (11727129_at) / Fold change /veh MAGEB2 (11727129_at) / RFU TMEM200A (11744735_a_at) / Fold change /veh TMEM200A (11744735_a_at) / RFU CCDC152 (11751479_a_at) / Fold change /veh CCDC152 (11751479_a_at) / RFU FAM211A (11726209_a_at) / Fold change /veh FAM211A (11726209_a_at) / RFU RGS16 (11746705_a_at) / Fold change /veh RGS16 (11746705_a_at) / RFU VCAN (11755009_s_at) / Fold change /veh VCAN (11755009_s_at) / RFU RHOB (11743442_s_at) / Fold change /veh RHOB (11743442_s_at) / RFU RGS16 (11720943_a_at) / Fold change /veh RGS16 (11720943_a_at) / RFU RGS16 (11720944_at) / Fold change /veh RGS16 (11720944_at) / RFU, VPS4B / Fold change vs veh, VPS4B / RFU, CREB1 / Fold change vs veh, CREB1 / RFU, DNAJC13 / Fold change vs veh, DNAJC13 / RFU, GNAQ / Fold change vs veh, GNAQ / RFU, CDK5R1 / Fold change vs veh, CDK5R1 / RFU, ZRANB3 / Fold change vs veh, ZRANB3 / RFU, CUL4A / Fold change vs veh, CUL4A / RFU, CCNY / Fold change vs veh, CCNY / RFU, UFL1 / Fold change vs veh, UFL1 / RFU, COG3 / Fold change vs veh, COG3 / RFU, DIAPH2 / Fold change vs veh, DIAPH2 / RFU, SKA2 / Fold change vs veh, SKA2 / RFU, AFF3 / Fold change vs veh, AFF3 / RFU, LMF1 / Fold change vs veh, LMF1 / RFU, IPO11 / Fold change vs veh, IPO11 / RFU, DFFB / Fold change vs veh, DFFB / RFU, FOXP1 / Fold change vs veh, FOXP1 / RFU, CARD8 / Fold change vs veh, CARD8 / RFU, STRN3 / Fold change vs veh, STRN3 / RFU, ADK / Fold change vs veh, ADK / RFU, RASSF2 / Fold change vs veh, RASSF2 / RFU, WIPF1 / Fold change vs veh, WIPF1 / RFU, LARP1B / Fold change vs veh, LARP1B / RFU, RASA1 / Fold change vs veh, RASA1 / RFU, RB1 / Fold change vs veh, RB1 / RFU, PPFIA1 / Fold change vs veh, PPFIA1 / RFU, MAT2A / Fold change vs veh, MAT2A / RFU, CCT5 / Fold change vs veh, CCT5 / RFU, WDR92 / Fold change vs veh, WDR92 / RFU, CUX1 / Fold change vs veh, CUX1 / RFU, TTC7A / Fold change vs veh, TTC7A / RFU, TMEM135 / Fold change vs veh, TMEM135 / RFU, DEPTOR / Fold change vs veh, DEPTOR / RFU, CPM / Fold change vs veh, CPM / RFU, DNAJB6 / Fold change vs veh, DNAJB6 / RFU, CACNA2D3 / Fold change vs veh, CACNA2D3 / RFU, DTX4 / Fold change vs veh, DTX4 / RFU, TFCP2 / Fold change vs veh, TFCP2 / RFU, GMCL1 /// GMCL1P1 / Fold change vs veh, GMCL1 /// GMCL1P1 / RFU, AEBP2 / Fold change vs veh, AEBP2 / RFU, SNHG1 /// SNORD22 /// SNORD25 /// SNORD26 /// SNORD27 /// SNORD28 /// SNORD29 /// SNORD31 / Fold change vs veh, SNHG1 /// SNORD22 /// SNORD25 /// SNORD26 /// SNORD27 /// SNORD28 /// SNORD29 /// SNORD31 / Fold change (Aza/veh), C12orf56 (ProbeSet 11735607_a_at) / Fold change (ACY-1035/veh), C12orf56 (ProbeSet 11735607_a_at) / Fold change (Aza/veh), FGFR1OP (ProbeSet 11751329_s_at) / Fold change (ACY-1035/veh), FGFR1OP (ProbeSet 11751329_s_at) / Fold change (Aza/veh), VPS36 (ProbeSet 11739960_a_at) / Fold change (ACY-1035/veh), VPS36 (ProbeSet 11739960_a_at) / RFU SYPL1 (11715823_x_at) / Fold change /veh SYPL1 (11715823_x_at) / RFU IGFBP7 (11715501_s_at) / Fold change /veh IGFBP7 (11715501_s_at) / RFU REEP3 (11722064_at) / Fold change /veh REEP3 (11722064_at) / RFU IGLL1 (11728026_x_at) / Fold change /veh IGLL1 (11728026_x_at): dose or concentration left out as unconfirmed
Settings: ProbeSet 11762504_a_at; LIST D

SMILES: Nc1ccc(-c2cccs2)cc1NC(=O)c1ccc2c(c1)cc(C1CC1)n2CCN1CCOCC1 [ACY-1035]
- RFU, ZRANB3: 82.93 RFU
